Measurements as given in US12097173B2, “Volatile organic compound formulations having antimicrobial activity” (priority 2019, dated 2024).

What was measured:
Format in all cases: cell-based
Cercospora beticola = experiment: plate bioassay of volatile test mixtures, growth inhibition; conditions: 30 hr at 22° C.; esters with 1:1 v/v propanoic acid and isobutryic acid (acids to ester 7:2 v/v), 9 ul; acids 7 ul
Method: (§1) FIG. 1 illustrates a plate bioassay to determine the bioactivity of various esters when combined with a 1:1 mix of the two organic acids as per Table 2. The test organisms were as follows—Cercospora (dark-lower left bottom) then clockwise—Phytophthora, Verticillium, Sclerotinia, Pythium. Fusarium, Trichoderma, Rhizoctonia, and Aspergillus. The streaks were Saccharomyces (far right bottom) then Candida, E coli and Bacillus (left bottom). A=control plate, and B=plate with System 1 after incubation for 30 hr.
(§2) FIG. 9 depicts the biological activities of various test mixtures against a panel of test microbes. A small plug of each organism was placed in the periphery of the PDA plate. In the center well was placed the test solution in the plastic cup holder. A control plate (A) was also set up. After 30 hr the growth of the test organisms was compared to that of the control and the % inhibition was calculated. The (B) plate contained the test mixture. Measurements were made 30 hr after plate set up.
(§3) FIG. 1. Indicates how the assays were done to yield the data sets in Table 1. The various esters were combined with a 1:1 mixture of propanoic acid and isobutryic acid and these were added 7:2 V/V with the ester to be tested.
(§4) Shown in Table 1, are the inhibition and killing effects of propanoic acid, and isobutryic acid together and alone and with various esters. The tests were conducted over the course of 30 hr at 22° C. Measurements were made on appropriate controls and thus the percentage of inhibition calculations could be made on treatments vs the growth on a control organism (non-treated). The bacteria and yeast like organisms were evaluated on the basis of relative growth rates after 30 hr. Those highlighted areas on the table show those compounds (esters) having the most compatibility with propanoic and isobutryic acid 1:1 v/v mixtures with the appropriate esters at a 7:2 ratio—Systems 1 and 2 above. It is from this test that Systems 1 and 2 were discovered. The acids were added at […] individually and combination of the esters with the acids were added at the […] in the plate assay.
as §2, with “Tests were conducted as similarly described for Systems 1 and 2 above (FIG. 9) to ascertain” for “FIG. 9 depicts”

Phytophthora cinnamomi = experiment: as above; conditions: 30 hr at 22° C.; esters with 1:1 v/v propanoic acid and isobutryic acid (acids to ester 7:2 v/v), 9 ul; acids 7 ul
Method: as §1, §2, §3, §4
as §2, with “Tests were conducted as similarly described for Systems 1 and 2 above (FIG. 9) to ascertain” for “FIG. 9 depicts”

Pythium ultimum = experiment: as above; conditions: 30 hr at 22° C.; esters with 1:1 v/v propanoic acid and isobutryic acid (acids to ester 7:2 v/v), 9 ul; acids 7 ul
Method: as §1, §2, §3, §4
as §2, with “Tests were conducted as similarly described for Systems 1 and 2 above (FIG. 9) to ascertain” for “FIG. 9 depicts”

Rhizoctonia solani = experiment: as above; conditions: 30 hr at 22° C.; esters with 1:1 v/v propanoic acid and isobutryic acid (acids to ester 7:2 v/v), 9 ul; acids 7 ul
Method: as §1, §2, §3, §4
as §2, with “Tests were conducted as similarly described for Systems 1 and 2 above (FIG. 9) to ascertain” for “FIG. 9 depicts”

Trichoderma viridae = experiment: as above; conditions: 30 hr at 22° C.; esters with 1:1 v/v propanoic acid and isobutryic acid (acids to ester 7:2 v/v), 9 ul; acids 7 ul
Method: as §1, §2, §3, §4
as §2, with “Tests were conducted as similarly described for Systems 1 and 2 above (FIG. 9) to ascertain” for “FIG. 9 depicts”

Verticillium dahliae = experiment: as above; conditions: 30 hr at 22° C.; esters with 1:1 v/v propanoic acid and isobutryic acid (acids to ester 7:2 v/v), 9 ul; acids 7 ul
Method: as §1, §2, §3, §4
as §2, with “Tests were conducted as similarly described for Systems 1 and 2 above (FIG. 9) to ascertain” for “FIG. 9 depicts”

Sclerotinia sclerotiorum = experiment: as above; conditions: 30 hr at 22° C.; esters with 1:1 v/v propanoic acid and isobutryic acid (acids to ester 7:2 v/v), 9 ul; acids 7 ul
Method: as §1, §2, §3
The tests were conducted over the course of 30 hr at 22° C. Measurements were made on appropriate controls and thus the percentage of inhibition calculations could be made on treatments vs the growth on a control organism (non-treated). The bacteria and yeast like organisms were evaluated on the basis of relative growth rates after 30 hr. […] The acids were added at […] individually and combination of the esters with the acids were added at the […] in the plate assay.
as §2, with “Tests were conducted as similarly described for Systems 1 and 2 above (FIG. 9) to ascertain” for “FIG. 9 depicts”

Aspergillus fumigatus = experiment: as above; conditions: 30 hr at 22° C.; esters with 1:1 v/v propanoic acid and isobutryic acid (acids to ester 7:2 v/v), 9 ul; acids 7 ul
Method: as §1, §3, §4

Fusarium subglutinans = experiment: as above; conditions: 30 hr at 22° C.; esters with 1:1 v/v propanoic acid and isobutryic acid (acids to ester 7:2 v/v), 9 ul; acids 7 ul
Method: as §1, §3, §4

Bacillus subtilus = experiment: plate bioassay of volatile test mixtures, relative growth of streak; conditions: relative growth after 30 hr at 22° C.; esters with 1:1 v/v propanoic acid and isobutryic acid (7:2 v/v), 9 ul; acids 7 ul
Method: as §1, §2, §3, §4
as §2, with “Tests were conducted as similarly described for Systems 1 and 2 above (FIG. 9) to ascertain” for “FIG. 9 depicts”

Candida albicans = experiment: as above; conditions: relative growth after 30 hr at 22° C.; esters with 1:1 v/v propanoic acid and isobutryic acid (7:2 v/v), 9 ul; acids 7 ul
Method: as §1, §2, §3, §4
as §2, with “Tests were conducted as similarly described for Systems 1 and 2 above (FIG. 9) to ascertain” for “FIG. 9 depicts”

Escherichia coli = experiment: as above; conditions: relative growth after 30 hr at 22° C.; esters with 1:1 v/v propanoic acid and isobutryic acid (7:2 v/v), 9 ul; acids 7 ul
Method: as §1, §2, §3, §4
as §2, with “Tests were conducted as similarly described for Systems 1 and 2 above (FIG. 9) to ascertain” for “FIG. 9 depicts”

Saccharomyces cerevicae = experiment: as above; conditions: relative growth after 30 hr at 22° C.; esters with 1:1 v/v propanoic acid and isobutryic acid (7:2 v/v), 9 ul; acids 7 ul
Method: as §1, §2, §3, §4
as §2, with “Tests were conducted as similarly described for Systems 1 and 2 above (FIG. 9) to ascertain” for “FIG. 9 depicts”

CC(C)OC(=O)C(C)C [Isopropyl Isobutyrate]
inhibition of Cercospora beticola (Cercospora beticola): 95%
inhibition of Phytophthora cinnamomi (Phytophthora cinnamomi): −33%
inhibition of Pythium ultimum (Pythium ultimum): 100%
inhibition of Rhizoctonia solani (Rhizoctonia solani): 43%
inhibition of Trichoderma viridae (Trichoderma viridae): 20%
inhibition of Verticillium dahliae (Verticillium dahliae): 96%
inhibition of Sclerotinia sclerotiorum (Sclerotinia sclerotiorum): 30%
inhibition of Aspergillus fumigatus (Aspergillus fumigatus): 0%
inhibition of Fusarium subglutinans (Fusarium subglutinans): 33%
growth of Bacillus subtilus (Bacillus subtilus): No Growth
growth of Candida albicans (Candida albicans): Growth Observed
growth of Escherichia coli (Escherichia coli): No Growth
growth of Saccharomyces cerevicae (Saccharomyces cerevicae): Growth Observed

CC(C)COC(=O)C(C)C [Isobutyl Isobutyrate]
inhibition of Cercospora beticola (Cercospora beticola): 95%
inhibition of Phytophthora cinnamomi (Phytophthora cinnamomi): 0%
inhibition of Pythium ultimum (Pythium ultimum): 100%
inhibition of Rhizoctonia solani (Rhizoctonia solani): 86%
inhibition of Trichoderma viridae (Trichoderma viridae): 47%
inhibition of Verticillium dahliae (Verticillium dahliae): 92%
inhibition of Sclerotinia sclerotiorum (Sclerotinia sclerotiorum): 75%
inhibition of Aspergillus fumigatus (Aspergillus fumigatus): 80%
inhibition of Fusarium subglutinans (Fusarium subglutinans): 50%
growth of Bacillus subtilus (Bacillus subtilus): Inhibited
growth of Candida albicans (Candida albicans): Growth Observed
growth of Escherichia coli (Escherichia coli): Inhibited
growth of Saccharomyces cerevicae (Saccharomyces cerevicae): Growth Observed

CC(C)CCOC(=O)C(C)C [Isoamyl Isobutyrate]
inhibition of Cercospora beticola (Cercospora beticola): 95%
inhibition of Phytophthora cinnamomi (Phytophthora cinnamomi): 97%
inhibition of Pythium ultimum (Pythium ultimum): 100%
inhibition of Rhizoctonia solani (Rhizoctonia solani): 100%
inhibition of Trichoderma viridae (Trichoderma viridae): 67%
inhibition of Verticillium dahliae (Verticillium dahliae): 96%
inhibition of Sclerotinia sclerotiorum (Sclerotinia sclerotiorum): 80%
inhibition of Aspergillus fumigatus (Aspergillus fumigatus): 80%
inhibition of Fusarium subglutinans (Fusarium subglutinans): 67%
growth of Bacillus subtilus (Bacillus subtilus): No Growth
growth of Candida albicans (Candida albicans): Growth Observed
growth of Escherichia coli (Escherichia coli): No Growth
growth of Saccharomyces cerevicae (Saccharomyces cerevicae): Growth Observed

CC(C)COC(=O)CC(C)C [Isobutyl Isovalerate]
inhibition of Cercospora beticola (Cercospora beticola): 95%
inhibition of Phytophthora cinnamomi (Phytophthora cinnamomi): 100%
inhibition of Pythium ultimum (Pythium ultimum): 100%
inhibition of Rhizoctonia solani (Rhizoctonia solani): 94%
inhibition of Trichoderma viridae (Trichoderma viridae): 20%
inhibition of Verticillium dahliae (Verticillium dahliae): 96%
inhibition of Sclerotinia sclerotiorum (Sclerotinia sclerotiorum): 0%
inhibition of Aspergillus fumigatus (Aspergillus fumigatus): 0%
inhibition of Fusarium subglutinans (Fusarium subglutinans): 67%
growth of Bacillus subtilus (Bacillus subtilus): Inhibited
growth of Candida albicans (Candida albicans): Growth Observed
growth of Escherichia coli (Escherichia coli): Inhibited
growth of Saccharomyces cerevicae (Saccharomyces cerevicae): Growth Observed

CC(C)C(=O)O [Isobutyric Acid, reference compound]
inhibition of Cercospora beticola (Cercospora beticola): 95%
inhibition of Phytophthora cinnamomi (Phytophthora cinnamomi): 100%
inhibition of Pythium ultimum (Pythium ultimum): 100%
inhibition of Rhizoctonia solani (Rhizoctonia solani): 86%
inhibition of Trichoderma viridae (Trichoderma viridae): 27%
inhibition of Verticillium dahliae (Verticillium dahliae): 90%
inhibition of Sclerotinia sclerotiorum (Sclerotinia sclerotiorum): 40%
inhibition of Aspergillus fumigatus (Aspergillus fumigatus): 90%
inhibition of Fusarium subglutinans (Fusarium subglutinans): 67%
growth of Bacillus subtilus (Bacillus subtilus): No Growth
growth of Candida albicans (Candida albicans): Growth Observed
growth of Escherichia coli (Escherichia coli): No Growth
growth of Saccharomyces cerevicae (Saccharomyces cerevicae): Growth Observed

CCCC(=O)OCC(C)C [Isobutyl Butyrate]
inhibition of Cercospora beticola (Cercospora beticola): 100%
inhibition of Phytophthora cinnamomi (Phytophthora cinnamomi): 33%
inhibition of Pythium ultimum (Pythium ultimum): 100%
inhibition of Rhizoctonia solani (Rhizoctonia solani): 100%
inhibition of Trichoderma viridae (Trichoderma viridae): 47%
inhibition of Verticillium dahliae (Verticillium dahliae): 96%
inhibition of Sclerotinia sclerotiorum (Sclerotinia sclerotiorum): 70%
inhibition of Aspergillus fumigatus (Aspergillus fumigatus): 0%
inhibition of Fusarium subglutinans (Fusarium subglutinans): 33%
growth of Bacillus subtilus (Bacillus subtilus): No Growth
growth of Candida albicans (Candida albicans): Growth Observed
growth of Escherichia coli (Escherichia coli): No Growth
growth of Saccharomyces cerevicae (Saccharomyces cerevicae): Growth Observed
